Measurements reported in the NIST ThermoML archive (doi:10.1021/je034225b).

What was measured:
[1] = xn = mol fraction of the nth substance listed; conditions: for surface tension liquid-gas: 297 K; for mass density: 100 kPa, Liquid, Pycnometric method
[2] = 297 K

CNC [dimethylamine] + O
[1]
Conditions	surface tension liquid-gas [mN/m]
x1 = 0.002	68.4
x1 = 0.003	65.7
x1 = 0.004	65.8
x1 = 0.006	64.7
x1 = 0.008	62.8
x1 = 0.01	61.8
x1 = 0.013	60.4
x1 = 0.016	58.4
x1 = 0.025	56.1
x1 = 0.034	53.2
x1 = 0.043	51
x1 = 0.052	49.1
x1 = 0.061	48.1
x1 = 0.071	47.8
x1 = 0.091	42.4
x1 = 0.112	40.4
x1 = 0.135	38.9
x1 = 0.158	36.8
x1 = 0.184	35.3
x1 = 0.21	33.7

[1], 298.15 K
Conditions	mass density [kg/m3]
x1 = 0.001	998
x1 = 0.002	994
x1 = 0.004	988
x1 = 0.008	987
x1 = 0.016	984
x1 = 0.025	974
x1 = 0.034	969
x1 = 0.043	967
x1 = 0.091	941
x1 = 0.146	918
x1 = 0.21	888

O=S(=O)(O)O [sulfuric acid] + O
[1]
Conditions	surface tension liquid-gas [mN/m]
x1 = 0.001	71.6
x1 = 0.003	71.4
x1 = 0.006	71.2
x1 = 0.008	71.9
x1 = 0.026	72.4
x1 = 0.052	73.1
x1 = 0.09	74
x1 = 0.125	74.7
x1 = 0.18	75.2
x1 = 0.25	73.6
x1 = 0.35	72.3
x1 = 0.48	69.4

mass density [kg/m3], [1]
Conditions	298.15 K	571.15 K
x1 = 0.001	998	–
x1 = 0.003	1005	1005
x1 = 0.006	1017	–
x1 = 0.008	1024	–
x1 = 0.026	1085	–
x1 = 0.052	1156	–
x1 = 0.09	1253	–
x1 = 0.125	1328	–
x1 = 0.18	1422	–
x1 = 0.25	1528	–
x1 = 0.35	1622	–
x1 = 0.48	1725	–

O [water]
Conditions	surface tension liquid-gas [mN/m]
[2]	70.4
